Measured values published in patent US20100087351A1, “Perfumes for Linear Citrus Release in Rinse-Off Systems” (Quest International Services B.V., priority 2007, published 2010).

Assay: Odor detection threshold (ODT)
Conditions: for ODT: Table 9
Description: Within these defined water-release groups, odorants are then further described based on their experimentally determined odor detection thresholds (ODT) to further characterize the odor impact or olfactive intensity of a citrus and other olfactive types within the herein-described released group of odorants.
Upon their release in headspace, odorants are detected based on their odor detection threshold values. Odor detection thresholds are defined as the lowest concentration of odorants in a selected medium (air or water) to be detected. By including odor values of odorants in the model, one can further improve on the values for predicted performance of once odorants are released from the partition into the air.
Various databases for experimental odor detection threshold values in various partitions such as water and air are available. See Compilation of Odor and Taste Threshold Values Data, American Society for Testing and Materials, F. A. Fazzalari Editor; Booleans Aroma Chemical Information Service (BACIS)).

For `C=CC(C)(O)CCC=C(C)CC` (mixture of isomers) [ETHYL LINALOOL], the ODT was 120 ppb, the odt (Table 11, in ppb) was 120.00 and the odt (Table 13, in ppb) was 120.00. For the same compound, the odt (Table 15) was 120 ppb and the odt (Table 17) was 440 ppb.

Compound `CC1=CCC(C=CC(C)C(C)O)C1(C)C` (stereo in doubt) [EBANOL] has an ODT of 54 ppb, an odt (Table 11, in ppb) of 54.00 and an odt (Table 13, in ppb) of 54.00.

With `CCCCCCCCCCC=O` [ALDEHYDE C11] the odt (Table 13) was 7.7 ppb.

`CCCCCCCCCCCC=O` [ALDEHYDE C12 (DODECANAL), DODECANAL] gave an odt (Table 15) of 17 ppb and an odt (Table 17) of 17 ppb.

Compound `CCCCCCCC=O` [ALDEHYDE C 8 (OCTANAL), OCTANAL] has an odt (Table 15) of 4.8 ppb and an odt (Table 17) of 4.5 ppb.

With `CCCCCCCCCC=O` [ALDEHYDE C 10 (DECANAL), DECANAL] the odt (Table 15) was 8.7 ppb and the odt (Table 17) was 6.7 ppb.

Work on `C=CCOC(=O)CCC1CCCCC1` [ALLYL CYCLOHXYL PROPIONATE, ALLYL CYCLOHEXYL PROPIONATE] yielded an ODT of 81 ppb, an odt (Table 11, in ppb) of 81.00 and an odt (Table 13, in ppb) of 61.00.

`CCOC(=O)CC1(C)OCCO1` [APPLINAL] gave an ODT of 55 ppb, an odt (Table 11, in ppb) of 55.00 and an odt (Table 13, in ppb) of 55.00.

`CCCCC/C=C\CCC=O` [CIS 4 DECENAL] showed an odt (Table 15) of 3.1 ppb and an odt (Table 17) of 3.1 ppb.

Work on `CC/C=C\CCOC(C)=O` [CIS-3-HEXENYL ACETATE] yielded an ODT of 170 ppb, an odt (Table 11, in ppb) of 170.00 and an odt (Table 13, in ppb) of 170.00. The odt (Table 15) was 170 ppb and the odt (Table 17) was 170 ppb.

Compound `CC/C=C\CCOC(=O)c1ccccc1O` [CIS-3-HEXENYL SALICYLATE] has an ODT of 1.9 ppb, an odt (Table 11) of 1.9 ppb and an odt (Table 13) of 1.8 ppb. The odt (Table 15) was 1.9 ppb and the odt (Table 17) was 1.9 ppb.

`CC(C)=CCCC(C)=CC=O` [CITRAL] showed an odt (Table 11, in ppb) of 12.00 and an odt (Table 13, in ppb) of 12.00.

For `CC(C)=CCCC(C)CC=O` (stereo not shown) [CITRONELLAL], the odt (Table 11, in ppb) was 33.00, the odt (Table 13, in ppb) was 33.00 and the odt (Table 15) was 33 ppb. The odt (Table 17) was 33 ppb.

`CC(C)=CCCC(C)CCO` (stereo not shown) [CITRONELLOL] gave an odt (Table 11, in ppb) of 29.00 and an odt (Table 13, in ppb) of 29.00.

For `CC(C)=CCCC(C)CC#N` (stereo not shown) [CITRONELLYL NITRILE], the ODT was 71 ppb, the odt (Table 11, in ppb) was 71.00 and the odt (Table 13, in ppb) was 71.00. The odt (Table 15) was 71 ppb and the odt (Table 17) was 71 ppb.

Compound `C=CC(C)CCCC(C)(C)O` (stereo not shown) [DIHYDROMYRCENOL] has an ODT of 810 ppb, an odt (Table 11, in ppb) of 819.00 and an odt (Table 13, in ppb) of 810.00. For the same compound, the odt (Table 15) was 810 ppb and the odt (Table 17) was 810 ppb.

Compound `CCOC(=O)CC(C)=O` [ETHYL ACETOACETATE] has an ODT of 54 ppb, an odt (Table 11, in ppb) of 55.00 and an odt (Table 13, in ppb) of 55.00.

`CCOC(=O)C(C)CC` (stereo not shown) [Ethyl 2-methylbutyrate] gave an ODT of 20 ppb, an odt (Table 11, in ppb) of 20.00 and an odt (Table 13, in ppb) of 20.00.

`CCC(C)C(=O)N(C)c1ccccc1` (stereo not shown) [GARDAMIDE] showed an ODT of 24 ppb, an odt (Table 11, in ppb) of 24.00 and an odt (Table 13, in ppb) of 24.00. It also gave an odt (Table 15) of 24 ppb and an odt (Table 17) of 24 ppb.

Compound `CCCCCCOC(C)=O` [HEXYL ACETATE] has an ODT of 950 ppb, an odt (Table 11, in ppb) of 550.00 and an odt (Table 13, in ppb) of 950.00.

For `CCCCCCCCCCCC#N` [LAURONITRILE], the odt (Table 13) was 6.7 ppb.

Compound `CC1=CC(C)C(C=O)CC1` (stereo not shown) [LIGUSTRAL] has an odt (Table 11, in ppb) of 110.00, an odt (Table 13, in ppb) of 110.00 and an odt (Table 15) of 110 ppb. The odt (Table 17) was 110 ppb.

For `C=CC(C)(O)CCC=C(C)C` (stereo not shown) [LINALOOL, linalool], the odt (Table 15) was 20 ppb and the odt (Table 17) was 20 ppb.

For `CCCCCCCCCC=CC=O` [MANDARIN ALDEHYDE], the odt (Table 13) was 1.5 ppb.

`CC(CC=O)CCc1ccccc1` (stereo not shown) [MEFRANAL] showed an ODT of 17 ppb, an odt (Table 11, in ppb) of 17.00 and an odt (Table 13, in ppb) of 17.00. It also gave an odt (Table 15) of 17 ppb and an odt (Table 17) of 17 ppb.

`CC(C)=CCCC(C)C=O` (stereo not shown) [MELONAL] gave an odt (Table 15) of 1.5 ppb and an odt (Table 17) of 1.5 ppb.

`CCCCCC1C(=O)CCC1CC(=O)OC` (stereo not shown) [METHYL DIHYDRO JASMONATE] showed an ODT of 0.23 ppb, an odt (Table 11) of 0.23 ppb and an odt (Table 13) of 0.23 ppb.

For `CCCCCCC#CC(=O)OC` [METHYL OCTINE CARBONATE], the odt (Table 15) was 9.7 ppb and the odt (Table 17) was 8.7 ppb.

Compound `CCC(CC)C(=O)N(C)c1cccc(C)c1` [PARADISAMIDE] has an odt (Table 13) of 0.8 ppb, an odt (Table 15) of 0.6 ppb and an odt (Table 17) of 0.6 ppb.

For `CC1CC(C)(c2ccccc2)CO1` (stereo not shown) [RHUBAFURAN], the odt (Table 11, in ppb) was 440.00, the odt (Table 13, in ppb) was 440.00 and the odt (Table 15) was 440 ppb. For the same compound, the odt (Table 17) was 440 ppb.

Work on `CC(C)CC1CCCC(C)(O)C1` (stereo not shown) [ROSSITOL] yielded an ODT of 440 ppb, an odt (Table 11, in ppb) of 440.00 and an odt (Table 13, in ppb) of 440.00. The odt (Table 15) was 440 ppb and the odt (Table 17) was 120 ppb.

`CC(=O)OC(C)c1ccccc1` (stereo not shown) [STRALLYL ACETATE, STYRALLYL ACETATE] gave an odt (Table 15) of 110 ppb and an odt (Table 17) of 110 ppb.

Work on `CCC(C)(O)CCCC(C)C` (stereo not shown) [TETRAHYDROLINALOOL] yielded an ODT of 380 ppb, an odt (Table 11, in ppb) of 380.00 and an odt (Table 13, in ppb) of 380.00.

Work on `CC/C=C\CC/C=C/C=O` [TRANS 2 CIS 6 NONADENAL, TRANS 2 CIS 6 NONADIENAL] yielded an odt (Table 15) of 0.2 ppb and an odt (Table 17) of 0.2 ppb.

With `CC/C=C\CC/C=C/CO` [TRANS 2 CIS 6 NONADENOL, TRANS 2 CIS 6 NONADIENOL] the odt (Table 15) was 1.5 ppb and the odt (Table 17) was 1.5 ppb.

Compound `CCCCCCCCCCC=CC#N` [TRIDECEN 2 NITRILE] has an odt (Table 15) of 8.7 ppb and an odt (Table 17) of 6.7 ppb.

`CCC=C(C)C(O)CCCCC` (stereo not shown) [UNDECAVERTOL, 4-Methyl-3-decen-5-ol] gave an odt (Table 15) of 28 ppb and an odt (Table 17) of 28 ppb.

Compound `C=C(C)[C@H]1CC=C(C)CC1` [d-LIMONINE, d-1-Methyl-4-isopropenyl-1-cyclohexene] has an ODT of 430 ppb, an odt (Table 11, in ppb) of 430.00 and an odt (Table 13, in ppb) of 430.00. For the same compound, the odt (Table 15) was 430 ppb and the odt (Table 17) was 430 ppb.
